# Results taken from patent US12391686B2, “Compounds and uses thereof” (Foghorn Therapeutics Inc., priority 2019, dated 2025).
# Key:
# Assay type in all cases: cell-based
# [1] = test system: synovial sarcoma cell lines (SYO1, Yamato, HS-SY-II, and ASKA); assay: Growth of synovial sarcoma cell lines (IncuCyte confluency, crystal violet, colony imaging), Example 3; settings: 1 μM or indicated doses, FIGS. 5, 6, 7
# Procedure: (§1) Procedures: Cells were treated with DMSO or the BRD9 degrader, Compound 1, at indicated concentrations, and proliferation was monitored from day 7 to day 14 by measuring confluency over time using an IncuCyte live cell analysis system (FIG. 5). Growth medium and compounds were refreshed every 3-4 days.
# (§2) Cells were seeded into 12-well plates and treated with DMSO, 1 μM BRD9 inhibitor, Compound 2 (also known as BI-7273, see Martin et al, J Med Chem. 59(10):4462-4475 (2016); see structure of Compound 2 below), or 1 μM BRD9 degrader, Compound 1.
# (§3) The number of cells was optimized for each cell line. Growth medium and compounds were refreshed every 3-5 days. SYO1, Yamato, A549, 293T and HS-SY-II cells were fixed and stained at day 11. ASKA cells were fixed and stained at day 23. Staining was done by incubation with crystal violet solution (0.5 g Crystal Violet, 27 ml 37% Formaldehyde, 100 mL 10×PBS, 10 mL Methanol, 863 dH2O to 1 L) for 30 min followed by 3× washes with water and drying the plates for at least 24 h at room temperature. Subsequently plates were scanned on an Odyssey CLx Imaging system (FIG. 6).
# (§4) Cells were seeded into 96-well ultra low cluster plate (Costar, #7007) in 200 μL complete media and treated at day 2 with DMSO, Staurosporin, or BRD9 degarder, Compound 1, at indicated doses (FIG. 7). Media and compounds were changed every 5 d and cell colonies were imaged at day 14.
# [2] = test system: non-synovial control cancer cell lines (293T, A549, G401); assay: Growth of non-synovial control cancer cell lines, Example 3; settings: FIGS. 5, 6, 7
# Procedure: as §1, §2, §3, §4
# [3] = test system: synovial sarcoma cell lines (SYO1, HS-SY-II, and ASKA); assay: Crystal violet growth assay in synovial sarcoma cell lines, Example 4; settings: for inhibition of the growth of the cells: SYO1, HS-SY-II, ASKA, treated daily, day 14, FIG. 8
# Procedure: (§5) Procedure: Cells were seeded into 6-well or 12-well plates and were treated daily with a BRD9 degrader (Compound 1), a bromo-domain BRD9 binder (Compound 2), E3 ligase binder (lenalidomide), DMSO, or staurosporin (positive control for cell killing), at indicated concentrations. The number of cells was optimized for each cell line. Growth media was refreshed every 5 days. By day 14, medium was removed, cells were washed with PBS, and stained using 500 μL of 0.005% (w/v) crystal violet solution in 25% (v/v) methanol for at least 1 hour at room temperature. Subsequently plates were scanned on an Odyssey CLx Imaging system.
# [4] = test system: non-synovial control cancer cell lines (RD, HCT116, and Calu6); assay: Crystal violet growth assay in non-synovial control cancer cell lines, Example 4; settings: treated daily, day 14, FIG. 9
# Procedure: as §5
# SYO1 cells [5] = assay: Cell cycle analysis (Click-iT Plus EdU Flow Cytometry Assay); settings: 200 nM or 1 μM, 8 or 13 days, as compared to DMSO and lenalidomide
# Procedure: (§6) Procedure: SYO1 cells were treated for 8 or 13 days with DMSO, a BRD9 degrader (Compound 1) at 200 nM or 1 μM, or an E3 ligase binder (lenalidomide) at 200 nM. Compounds were refreshed every 5 days. Cell cycle analysis was performed using the Click-iT™ Plus EdU Flow Cytometry Assay (Invitrogen). The apoptosis assay was performed using the Annexin V-FITC Apoptosis Detection Kit (Sigma A9210). Assays were performed according to the manufacturer's protocol.
# SYO1 cells [6] = assay: Apoptosis assay (Annexin V-FITC Apoptosis Detection Kit); settings: 200 nM or 1 μM, 8 days, as compared to DMSO controls
# Procedure: as §6
Compound,inhibition of the growth of the cells [1],inhibition of the growth of the cells [2],inhibition of the growth of the cells [3],"growth inhibition compared with the other treatments ([3]; all synovial cell lines, versus Compound 2 and lenalidomide)",inhibition of the growth of the cells [4],numbers of cells in the S-phase of the cell cycle (SYO1 cells [5]),numbers of early- and late-apoptotic cells (SYO1 cells [6])
COc1cc(-c2cn(C)c(=O)c3cnccc23)cc(OC)c1CN(C)CC(=O)NCCOCCOCCNc1cccc2c1C(=O)N(C1CCC(=O)NC1=O)C2=O (centres unmarked) [Compound 1],inhibition of the growth of the cells,does not result in inhibition of the growth,inhibition of the growth of the cells,most significant growth inhibition,did not result in inhibition of the growth,reduced numbers of cells in the S-phase,increased numbers of early- and late-apoptotic cells
COc1cc(-c2cn(C)c(=O)c3cnccc23)cc(OC)c1CN(C)C [Compound 2],inhibition of the growth of the cells,does not result in inhibition of the growth,inhibition of the growth of the cells,,did not result in inhibition of the growth,,
